# Patent EP4818168A1, “FUSED RING COMPOUND, PHARMACEUTICAL COMPOSITION THEREOF AND USE THEREOF” (priority 2023, dated 2025)
# Read-outs that look alike come from different tables or passages of the source.
# Tests used:
# H82 cells = assay: cells; format: cell-based
# Summary of the method: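 After 6 days' compound treatment at 37 °C (final DMSO 0.1%, RPMI1640/10% FBS), viable H82 cells were quantified by ATP-dependent CellTiter-Glo luminescence. Remaining activity was calculated against DMSO and medium wells, and a sigmoidal fit gave IC50.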
# AURKA = biological target: T1, AURKA (Homo sapiens, UniProt O14965); format: cell-based
# T1 construct: endogenous in cells; host or cells: Jurkat cells
# T1 sequence (O14965 1-403): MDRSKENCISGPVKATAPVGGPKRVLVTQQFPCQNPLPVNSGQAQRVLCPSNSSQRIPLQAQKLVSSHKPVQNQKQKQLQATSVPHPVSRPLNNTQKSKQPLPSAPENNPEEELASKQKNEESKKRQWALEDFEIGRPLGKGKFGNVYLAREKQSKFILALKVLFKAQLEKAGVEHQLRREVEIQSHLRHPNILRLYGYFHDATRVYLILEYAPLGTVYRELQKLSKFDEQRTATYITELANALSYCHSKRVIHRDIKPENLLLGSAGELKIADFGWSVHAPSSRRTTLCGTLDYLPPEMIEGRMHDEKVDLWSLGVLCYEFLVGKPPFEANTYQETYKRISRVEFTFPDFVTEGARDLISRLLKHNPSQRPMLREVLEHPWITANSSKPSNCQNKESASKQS
# Summary of the method: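 AURKA degradation read by western blot: band signal, fluorescent or chemiluminescent, curve-fitted to derive DC50. Cells were Jurkat, plated at 1×10^6 cells/500 µL with compound, then lysed and blotted onto nitrocellulose, primary antibody overnight at 4°C.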
# [1] = Homo sapiens, NCI-H82, H82 cells, 4000 cells/well, CellTiter-Glo, read-out: IC50 in H82 Cells
# [2] = 100 nM compound, Jurkat cells, 24 h, Table 2
# [3] = 1 µM compound, Jurkat cells, 24 h, Table 2
# [4] = Homo sapiens, NCI-H82, read-out: IC50 in H82 Cells
Structure (SMILES),IC50 (H82 cells; [1]) [nM],Percentage of AURKA Degradation Induced by 100 nM Compound in Jurkat Cells (AURKA; [2]),Percentage of AURKA Degradation Induced by 1 µM Compound in Jurkat Cells (AURKA; [3]),IC50 (H82 cells; [4]) [nM],Percentage of AURKA Degradation Induced by 100 nM Compound in Jurkat Cells (AURKA),Percentage of AURKA Degradation Induced by 1 µM Compound in Jurkat Cells (AURKA),"IC50 (H82 cells; read-out: IC50 in H82 Cells, H82 cells, 4000 cells/well, CellTiter-Glo) [nM]"
O=C1CCN(c2ccc(N3CCC(N4CCN(C56CC(Nc7ncc8c(n7)-c7ccc(Cl)cc7C(c7c(F)cccc7F)=NC8)(C5)C6)C(=O)C4)CC3)nc2)C(=O)N1 [Compound A306],< 1000,++ (30% < Degradation ≤ 70%),+++ (Degradation > 70%),–,–,–,–
O=C1CCN(c2ccc(N3CCC(F)(CN4CCN(C56CC(Nc7ncc8c(n7)-c7ccc(Cl)cc7C(c7c(F)cccc7F)=NC8)(C5)C6)C(=O)C4)CC3)nc2)C(=O)N1 [Compound A272],–,–,–,< 1000,+++ (key: +: Degradation ≤ 30%; ++: 30% < Degradation ≤ 70%; +++: Degradation > 70%),+++ (key: +: Degradation ≤ 30%; ++: 30% < Degradation ≤ 70%; +++: Degradation > 70%),–
O=C1CCN(c2ccc(N3CC(N4CCN(Cc5ccc(Nc6ncc7c(n6)-c6ccc(Cl)cc6C(c6c(F)cccc6F)=NC7)cc5)CC4=O)C3)nc2)C(=O)N1 [Compound A276],–,–,–,< 1000,++ (key: +: Degradation ≤ 30%; ++: 30% < Degradation ≤ 70%; +++: Degradation > 70%),++ (key: +: Degradation ≤ 30%; ++: 30% < Degradation ≤ 70%; +++: Degradation > 70%),–
"O=C1CCN(c2ccc(N3CCOC4(CC(N5CCN(C67CC(Nc8ncc9c(n8)-c8ccc(Cl)cc8C(c8c(F)cccc8F)=NC9)(C6)C7)C(=O)C5)C4)C3)nc2)C(=O)N1 (single isomer, unassigned) [Compound A349]",–,++ (30% < Degradation ≤ 70%),++ (30% < Degradation ≤ 70%),–,–,–,< 1000
O=C1CCN(c2ccc(N3CCC(F)(CN4CC(=O)N(C56CC(Nc7ncc8c(n7)-c7ccc(Cl)cc7C(c7c(F)cccc7F)=NC8)(C5)C6)C(=O)C4)CC3)nc2)C(=O)N1 [Compound A294],< 1000,++ (30% < Degradation ≤ 70%),++ (30% < Degradation ≤ 70%),–,–,–,–
O=C1CCN(c2ccc(N3CCC(C4CCN(c5ccc(Nc6ncc7c(n6)-c6ccc(Cl)cc6C(c6c(F)cccc6F)=NC7)cc5)CC4)CC3)nc2)C(=O)N1 [Compound A271],< 1000,++ (30% < Degradation ≤ 70%),+++ (Degradation > 70%),–,–,–,–
O=C1CCN(c2ccc(N3CCC4(CC3)CC(NC(=O)c3ccc(Nc5ncc6c(n5)-c5ccc(Cl)cc5C(c5ccccn5)=NC6)cc3)C4)nc2)C(=O)N1 [Compound A128],< 1000,+++ (Degradation > 70%),+++ (Degradation > 70%),–,–,–,–
O=C1CCN(c2ccc(N3CCC(O)(CN4CCN(c5ccc(Nc6ncc7c(n6)-c6ccc(Cl)cc6C(c6c(F)cccc6F)=NC7)cc5)CC4)CC3)nc2)C(=O)N1 [Compound A264],< 1000,+++ (Degradation > 70%),+++ (Degradation > 70%),–,–,–,–
O=C1CCN(c2ccc(N3CCC4(CC3)CC(NC(=O)c3ccc(Nc5ncc6c(n5)-c5ccncc5C(c5ccccc5F)=NC6)cc3)C4)nc2)C(=O)N1 [Compound A138],1000 to 10000,+++ (Degradation > 70%),+++ (Degradation > 70%),–,–,–,–
Cc1c(N2CCN(CCC#Cc3cccc(Nc4ncc5c(n4)-c4ccc(Cl)cc4C(c4c(F)cccc4F)=NC5)c3)CC2)cccc1N1CCC(=O)NC1=O [Compound A129],< 1000,+++ (Degradation > 70%),+++ (Degradation > 70%),–,–,–,–
O=C1CCN(c2ccc(N3CCN(CCC#Cc4cccc(Nc5ncc6c(n5)-c5ccc(Cl)cc5C(c5c(F)cccc5F)=NC6)c4)CC3)cc2)C(=O)N1 [Compound A97],< 1000,+ (Degradation ≤ 30%),+ (Degradation ≤ 30%),–,–,–,–
